Measurements reported in patent publication US11110088B2, “Imidazopyrazine inhibitors of Bruton's tyrosine kinase” (Acerta Pharma B.V., priority 2015, dated 2021).
pEC50, pIC50: −log10 of the molar value.

Experiments:
[1] = target: EGFR WT (Homo sapiens (Human), UniProt P00533); assay: EGFR enzyme activity, IMAP assay; assay type: biochemical; conditions: 60 min pre-incubation; 2 μM ATP
Description: EGFR enzyme activity is measured using the IMAP (immobilized metal ion affinity-based fluorescence polarization) assay as outlined below.
EGFR enzyme (Invitrogen catalog #PR7295B), is diluted to 2.5 μg/mL in KR buffer (10 mM Tris-HCl, 10 mM MgCl2, 0.01% Tween-20, 0.1% NaN3, 1 mM DTT, 2 mM MnCl2, pH 7.5).
Final peptide substrate concentration in assay is 50 nM. […] Following incubation for 60 min at room temperature in the dark the enzyme reaction is stopped by adding 40 μL/well IMAP Progressive Binding Solution (according to suppliers (Molecular Devices) protocol using 20% 1× buffer A and 80% 1× buffer B with 600× diluted beads). After 60 min incubation at room temperature in the dark the FP signal is read. […] Values are calculated as percentage of the difference in readout (ΔmPi) of the controls with and without ATP. IC50 values are determined by curve fitting of the experimental results using GraphPad Prism6.

[2] = target: ErbB4 (Homo sapiens (Human), UniProt Q15303); assay: ErbB4 Z-LYTE assay (Life Technologies); assay type: biochemical; conditions: Z-LYTE assay performed at Life Technologies
[3] = target: BTK (Homo sapiens (Human), UniProt Q06187); assay: BTK enzyme activity, IMAP assay; assay type: biochemical; conditions: 60 min pre-incubation; 5 μM ATP
Sequence of BTK (Q06187 whole entry): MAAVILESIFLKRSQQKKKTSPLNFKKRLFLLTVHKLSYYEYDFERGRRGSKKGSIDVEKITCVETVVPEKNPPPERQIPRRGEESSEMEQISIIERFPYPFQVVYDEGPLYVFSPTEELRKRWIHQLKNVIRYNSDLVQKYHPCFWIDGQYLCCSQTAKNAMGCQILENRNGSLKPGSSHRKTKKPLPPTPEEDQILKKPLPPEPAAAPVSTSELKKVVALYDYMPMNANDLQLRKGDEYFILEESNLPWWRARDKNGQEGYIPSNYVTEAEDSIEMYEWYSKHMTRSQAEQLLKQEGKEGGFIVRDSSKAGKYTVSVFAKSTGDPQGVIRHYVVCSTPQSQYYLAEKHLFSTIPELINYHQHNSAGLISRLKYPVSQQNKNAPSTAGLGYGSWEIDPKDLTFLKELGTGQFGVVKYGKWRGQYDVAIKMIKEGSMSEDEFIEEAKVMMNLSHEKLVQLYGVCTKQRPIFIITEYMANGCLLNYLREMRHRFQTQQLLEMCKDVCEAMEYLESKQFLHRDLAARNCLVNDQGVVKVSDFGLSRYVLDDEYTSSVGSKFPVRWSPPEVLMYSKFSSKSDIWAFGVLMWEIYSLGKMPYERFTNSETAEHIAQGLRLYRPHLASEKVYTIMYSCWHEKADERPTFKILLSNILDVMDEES
Description: BTK enzyme activity is measured using the IMAP (immobilized metal ion affinity-based fluorescence polarization) assay as outlined below.
BTK enzyme (His-BTK (Millipore catalog #14-552)), is diluted to 0.4 U/mL in KR buffer (10 mM Tris-HCl, 10 mM MgCl2, 0.01% Tween-20, 0.05% NaN3, 1 mM DTT, 2 mM MnCl2, pH 7.2).
(§1) Serial dilutions log 10 from 2 mM to 63.2 nM of test compounds are made in 100% DMSO. The dilutions in DMSO are then diluted 50-fold in KR-buffer. Final compound concentration range in the assay ranged from 10 μM to 0.316 nM.
The assay is performed as follows: 5 μL/well of test compound in KR buffer (final DMSO concentration in the assay is 1%) is mixed with 5 µl/well of 0.4 U/mL BTK enzyme (final concentration in the assay is 0.1 U/mL). Test compounds and BTK enzyme are pre-incubated 60 minutes at room temperature, before adding 5 μL/well of 200 nM Fluorescin labeled substrate peptide (Blk/Lyntide substrate, e.g. #R7188/#R7233, Molecular Devices) in KR-buffer. Final peptide substrate concentration in assay is 50 nM. […] Following incubation for 2 hours at room temperature the enzyme reaction is stopped by adding 40 μL/well IMAP Progressive Binding Solution (according to suppliers (Molecular Devices) protocol using 75% 1× buffer A and 25% 1× buffer B with 1:600 Progressive Binding Solution). After 60 min incubation at room temperature in the dark the FP signal is read. Fluorescence at 535 nm is measured using parallel and perpendicular filters to determine differences in rotation due to binding of the phosphorylated substrate peptide to the beads. Values are calculated as percentage of the difference in readout (ΔmPi) of the controls with and without ATP. IC50 values are determined by curve fitting of the experimental results using Activity Base.

[4] = target: Bmx (Homo sapiens (Human), UniProt P51813); assay: BMX enzyme activity, IMAP assay; assay type: biochemical; conditions: 60 min pre-incubation; 5 μM ATP
Description: BMX enzyme activity is measured using the IMAP (immobilized metal ion affinity-based fluorescence polarization) assay as outlined below.
(§2) The dilutions in DMSO are then diluted 50-fold in KR-buffer.
(§3) Test compounds and BMX enzyme are pre-incubated 60 minutes at room temperature, before adding 5 μL/well of 200 nM Fluorescin labeled substrate peptide (Blk/Lyntide substrate #R7188, Molecular Devices) in KR-buffer. Final peptide substrate concentration in assay is 50 nM. […] IC50 values are determined by curve fitting of the experimental results using Activity Base.

[5] = target: ITK (Homo sapiens (Human), UniProt Q08881); assay: ITK enzyme activity, IMAP assay; assay type: biochemical; conditions: 60 min pre-incubation; 5 μM ATP
Sequence of ITK (Q08881 whole entry): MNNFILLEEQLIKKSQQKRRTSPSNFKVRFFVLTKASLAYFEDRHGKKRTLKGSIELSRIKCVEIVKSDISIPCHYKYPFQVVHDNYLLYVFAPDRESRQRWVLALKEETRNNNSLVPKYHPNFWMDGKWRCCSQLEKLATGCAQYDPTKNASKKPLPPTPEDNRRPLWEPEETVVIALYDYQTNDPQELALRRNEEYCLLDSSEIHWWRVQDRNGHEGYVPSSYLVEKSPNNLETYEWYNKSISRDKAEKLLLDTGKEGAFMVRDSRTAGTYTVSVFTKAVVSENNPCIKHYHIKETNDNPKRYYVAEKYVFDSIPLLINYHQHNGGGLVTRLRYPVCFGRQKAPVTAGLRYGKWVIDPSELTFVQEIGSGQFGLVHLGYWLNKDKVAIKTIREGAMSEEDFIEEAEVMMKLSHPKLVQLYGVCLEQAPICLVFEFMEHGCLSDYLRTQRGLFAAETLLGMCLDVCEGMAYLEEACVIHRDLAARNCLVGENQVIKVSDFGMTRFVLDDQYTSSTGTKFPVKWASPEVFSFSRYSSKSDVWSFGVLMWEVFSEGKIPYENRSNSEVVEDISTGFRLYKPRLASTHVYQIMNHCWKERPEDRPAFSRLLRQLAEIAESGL
Description: ITK enzyme activity is measured using the IMAP (immobilized metal ion affinity-based fluorescence polarization) assay as outlined below.
ITK enzyme (Millipore #14-660M) is diluted to 0.2 U/mL in KR buffer (10 mM Tris-HCl, 10 mM MgCl2, 0.01% Tween-20, 0.1% NaN3, 1 mM DTT, 2 mM MnCl2, pH 7.5)
as §2
as §3, with “ITK” for “BMX”, “#R8124,” for “#R7188,”

[6] = test system: CD69 in CD19+ B cells of anti-IgM stimulated PBMCs; assay: Human peripheral blood mononuclear cell (PBMC) CD69 assay; assay type: cell-based; conditions: Homo sapiens, PBMC, 2 h compound, then anti-IgM 18 hours
Description: Example 44—Human Peripheral Blood Mononuclear Cell (PBMC) CD69 Assay
Whole blood was collected in heparin-coated Vacutainer tubes (BD Biosciences, San Jose, Calif.) and used for isolation of PBMCs using Ficoll-Hypaque (Pharmacia, Uppsala, Sweden). Isolated PBMCs were cryopreserved in 90% FCS/10% DMSO until later use.
Cells from cryogenic storage were thawed in a 37° C. water bath, diluted with RPMI/1% FCS, washed 2 times, and then plated at 1×10^5 cells per well in RPMI/10% FCS.
Serial dilutions log 10 from 10 mM to 316 nM of test compounds are made in 100% DMSO, followed by a 100-fold dilution into RPMI/1% FCS. For each well, 10 μL was then transferred to the deep well plate containing 90 μL of PBMC cells. Final compound concentration range in the assay ranged from 10 μM to 0.316 nM, with a final DMSO concentration of 0.1%. PBMCs are then incubated for 2 h at 37° C. in presence or absence of test compounds, prior to stimulation with goat F(ab′)2 anti-IgM (Southern Biotech, #2022-14, final concentration in assay 5 μg/mL) for 18 hours.
Following stimulation with anti-IgM, PBMCs were incubated on ice for 30 min with anti-CD69-FITC, anti-CD19-BV421 (BD Biosciences #555530 and #562440, respectively) and 7AAD (Life Technologies #A1310). Flow cytometry was performed and fluorescence values were obtained from the CD69-FITC channel in CD19+ gated life B cells. ECso values are determined by curve fitting of the experimental results using GraphPad Prism.

[7] = target: Jak3 (Homo sapiens (Human), UniProt P52333); assay: Jak3 Z-LYTE assay (Life Technologies); assay type: biochemical; conditions: Z-LYTE assay performed at Life Technologies
Sequence of Jak3 (P52333 whole entry): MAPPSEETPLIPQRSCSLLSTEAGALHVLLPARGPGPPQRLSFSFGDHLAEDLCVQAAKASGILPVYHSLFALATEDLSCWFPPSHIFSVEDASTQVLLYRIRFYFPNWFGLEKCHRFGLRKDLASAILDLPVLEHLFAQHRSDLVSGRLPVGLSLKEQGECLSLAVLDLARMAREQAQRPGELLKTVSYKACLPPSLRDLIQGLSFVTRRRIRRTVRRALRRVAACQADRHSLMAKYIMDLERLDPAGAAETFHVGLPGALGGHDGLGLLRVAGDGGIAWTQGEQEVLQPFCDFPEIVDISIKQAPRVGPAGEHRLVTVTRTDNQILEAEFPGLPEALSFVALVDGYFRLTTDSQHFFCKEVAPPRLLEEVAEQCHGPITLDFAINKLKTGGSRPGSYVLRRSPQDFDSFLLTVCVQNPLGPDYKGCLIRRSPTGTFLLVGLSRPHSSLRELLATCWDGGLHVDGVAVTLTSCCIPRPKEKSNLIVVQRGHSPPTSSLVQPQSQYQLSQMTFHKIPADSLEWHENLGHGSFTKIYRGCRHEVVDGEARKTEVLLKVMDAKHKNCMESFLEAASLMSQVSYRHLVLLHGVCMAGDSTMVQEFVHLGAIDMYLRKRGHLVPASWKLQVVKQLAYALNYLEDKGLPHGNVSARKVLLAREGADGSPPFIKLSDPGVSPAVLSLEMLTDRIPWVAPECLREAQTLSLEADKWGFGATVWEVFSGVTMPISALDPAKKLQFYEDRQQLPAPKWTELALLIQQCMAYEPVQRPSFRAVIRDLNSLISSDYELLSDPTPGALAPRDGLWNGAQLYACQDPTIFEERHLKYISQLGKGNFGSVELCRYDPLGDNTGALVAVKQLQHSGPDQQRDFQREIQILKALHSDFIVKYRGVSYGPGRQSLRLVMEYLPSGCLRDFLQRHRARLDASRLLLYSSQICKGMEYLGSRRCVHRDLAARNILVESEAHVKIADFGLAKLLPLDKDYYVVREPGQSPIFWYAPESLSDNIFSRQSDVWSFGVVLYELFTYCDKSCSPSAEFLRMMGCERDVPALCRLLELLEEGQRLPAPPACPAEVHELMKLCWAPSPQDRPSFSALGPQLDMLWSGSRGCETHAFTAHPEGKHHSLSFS

[8] = target: Txk (Homo sapiens (Human), UniProt P42681); assay: TXK enzyme activity, IMAP assay; assay type: biochemical; conditions: 60 min pre-incubation; 1 μM ATP
Sequence of Txk (P42681 whole entry): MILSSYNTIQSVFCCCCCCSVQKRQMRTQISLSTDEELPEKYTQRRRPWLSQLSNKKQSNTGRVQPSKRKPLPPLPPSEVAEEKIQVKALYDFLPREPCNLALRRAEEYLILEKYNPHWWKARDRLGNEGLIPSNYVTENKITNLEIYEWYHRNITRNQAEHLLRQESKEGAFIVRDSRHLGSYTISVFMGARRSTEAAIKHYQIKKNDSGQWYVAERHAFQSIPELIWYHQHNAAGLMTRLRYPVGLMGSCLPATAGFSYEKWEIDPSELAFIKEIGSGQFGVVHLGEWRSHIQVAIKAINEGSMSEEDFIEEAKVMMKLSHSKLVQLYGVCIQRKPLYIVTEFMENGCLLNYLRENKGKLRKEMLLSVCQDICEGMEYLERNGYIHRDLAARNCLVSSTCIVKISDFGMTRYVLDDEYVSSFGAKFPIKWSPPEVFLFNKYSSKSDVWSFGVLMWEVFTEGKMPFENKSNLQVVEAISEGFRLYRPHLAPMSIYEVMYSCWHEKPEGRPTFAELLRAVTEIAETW
Description: TXK enzyme activity is measured using the IMAP (immobilized metal ion affinity-based fluorescence polarization) assay as outlined below.
TXK enzyme (Millipore #14-761), is diluted to 2.5 U/mL in KR buffer (10 mM Tris-HCl, 10 mM MgCl2, 0.01% Tween-20, 0.1% NaN3, 1 mM DTT, 2 mM MnCl2, pH 7.5).
as §1
The assay is performed as follows: 5 μL/well of test compound in KR buffer (final DMSO concentration in the assay is 1%) is mixed with 5 μL/well of 2.5 U/mL TXK enzyme (final concentration in the assay is 0.625 U/mL (4.4 nM)). Test compounds and TXK enzyme are pre-incubated 60 minutes at room temperature, before adding 5 μL/well of 200 nM Fluorescin labeled substrate peptide (Blk/Lyntide substrate #R7188, Molecular Devices) in KR-buffer. Final peptide substrate concentration in assay is 50 nM. […] Following incubation for 2 hours at room temperature the enzyme reaction is stopped by adding 40 μL/well IMAP Progressive Binding Solution (according to suppliers (Molecular Devices) protocol using 60% 1× buffer A and 40% 1× buffer B with 800× diluted beads (Progressive Binding System, Molecular Devices). After 60 min incubation at room temperature in the dark the FP signal is read. Fluorescence at 535 nm is measured using parallel and perpendicular filters to determine differences in rotation due to binding of the phosphorylated substrate peptide to the beads. Values are calculated as percentage of the difference in readout (ΔmPi) of the controls with and without ATP. IC50 values are determined by curve fitting of the experimental results using Activity Base.

[9] = target: ErbB2 (Homo sapiens (Human), UniProt P04626); assay: ErbB2 Z-LYTE assay (Life Technologies); assay type: biochemical; conditions: Z-LYTE assay performed at Life Technologies
[10] = target: Blk (Homo sapiens (Human), UniProt P51451); assay: Blk Z-LYTE assay (Life Technologies); assay type: biochemical; conditions: Z-LYTE assay performed at Life Technologies
Sequence of Blk (P51451 whole entry): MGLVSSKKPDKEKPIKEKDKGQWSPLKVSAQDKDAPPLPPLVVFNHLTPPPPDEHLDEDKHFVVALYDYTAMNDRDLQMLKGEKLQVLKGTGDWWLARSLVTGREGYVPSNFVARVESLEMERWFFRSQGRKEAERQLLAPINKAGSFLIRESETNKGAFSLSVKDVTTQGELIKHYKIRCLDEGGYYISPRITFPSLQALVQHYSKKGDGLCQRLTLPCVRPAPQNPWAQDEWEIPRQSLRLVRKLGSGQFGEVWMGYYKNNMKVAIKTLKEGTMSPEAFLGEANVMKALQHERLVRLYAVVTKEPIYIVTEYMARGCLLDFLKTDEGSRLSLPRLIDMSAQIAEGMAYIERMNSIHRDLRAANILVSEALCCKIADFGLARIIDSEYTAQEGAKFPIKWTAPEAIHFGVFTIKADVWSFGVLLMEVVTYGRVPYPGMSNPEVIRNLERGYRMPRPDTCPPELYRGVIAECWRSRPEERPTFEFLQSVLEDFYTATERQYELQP

Sequence of EGFR WT (P00533 25-1210): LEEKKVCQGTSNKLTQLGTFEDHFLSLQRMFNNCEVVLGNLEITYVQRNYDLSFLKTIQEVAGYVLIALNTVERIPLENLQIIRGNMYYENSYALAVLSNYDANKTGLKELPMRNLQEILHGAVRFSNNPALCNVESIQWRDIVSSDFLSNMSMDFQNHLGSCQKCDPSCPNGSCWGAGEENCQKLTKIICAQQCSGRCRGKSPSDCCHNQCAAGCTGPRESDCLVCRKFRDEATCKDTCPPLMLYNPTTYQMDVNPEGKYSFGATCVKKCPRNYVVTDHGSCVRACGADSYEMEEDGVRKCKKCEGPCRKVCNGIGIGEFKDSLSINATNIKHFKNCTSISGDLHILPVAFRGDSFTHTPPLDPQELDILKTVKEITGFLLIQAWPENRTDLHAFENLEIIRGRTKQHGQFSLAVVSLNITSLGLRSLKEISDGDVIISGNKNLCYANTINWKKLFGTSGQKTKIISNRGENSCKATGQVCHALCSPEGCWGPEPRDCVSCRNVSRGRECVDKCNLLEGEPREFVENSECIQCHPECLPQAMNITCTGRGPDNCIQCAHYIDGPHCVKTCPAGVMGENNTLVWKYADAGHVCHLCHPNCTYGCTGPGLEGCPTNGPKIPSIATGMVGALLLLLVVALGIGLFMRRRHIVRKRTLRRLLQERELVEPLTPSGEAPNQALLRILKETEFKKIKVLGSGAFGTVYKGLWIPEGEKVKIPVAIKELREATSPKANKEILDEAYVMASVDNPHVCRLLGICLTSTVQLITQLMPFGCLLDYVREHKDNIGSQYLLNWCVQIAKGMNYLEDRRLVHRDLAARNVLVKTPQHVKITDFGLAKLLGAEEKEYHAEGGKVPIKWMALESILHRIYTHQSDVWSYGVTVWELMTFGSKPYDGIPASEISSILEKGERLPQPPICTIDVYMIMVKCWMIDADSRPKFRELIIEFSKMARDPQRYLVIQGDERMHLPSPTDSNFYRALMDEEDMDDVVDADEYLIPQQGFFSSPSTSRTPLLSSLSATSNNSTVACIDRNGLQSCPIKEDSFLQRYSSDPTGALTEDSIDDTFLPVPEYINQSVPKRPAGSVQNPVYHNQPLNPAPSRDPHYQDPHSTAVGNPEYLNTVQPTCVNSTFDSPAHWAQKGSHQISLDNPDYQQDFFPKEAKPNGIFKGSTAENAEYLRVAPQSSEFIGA

CC#CC(=O)N1CCC[C@H]1c1nc(-c2ccc(C(=O)Nc3cc(C(F)(F)F)ccn3)c(OC)c2)c2c(N)nccn12
pIC50 [1]: < 6.00 | pIC50 [2]: 7.00 | pIC50 [3]: 8.60 | pIC50 [4]: 7.85 | pIC50 [5]: < 6.00 | pEC50 [6]: 8.43 | pIC50 [7]: < 6.00 | pIC50 [8]: 7.80 | pIC50 [9]: < 6.00 | pIC50 [10]: 6.31
